According to patent US8916702B2 (priority 2012, dated 2014):

Each compound was assayed on HCV pseudoparticles (genotype 1a HCV E1 and E2 envelope, H77C isolate) (assay: microbe, parasite or virus in culture). Conditions: Hepatitis C virus, Huh-7, 48 h, HCV pseudoparticle infection of Huh7 cells, luciferase 2 days after infection; average of duplicates.
Format: cell-based

Compound	EC50
COc1cccc(CNC(=O)C(=O)NC[C@H](NC(=O)c2ccc(Nc3nc(NC4(c5ccc(Cl)cc5)CC4)nc(OCC(F)(F)F)n3)cc2)C(=O)O)c1 [Compound 1193]	0.52 nM
CC(=O)c1ccc(NC(=O)C(=O)NCC(C)(C)CNC(=O)c2ccc(Nc3nc(NC4(c5ccc(Cl)cc5)CC4)nc(OCC(F)(F)F)n3)cc2)cc1 [Compound 1603]	0.04 nM
CC(C)(C)OC(=O)NC1CCCC(NC(=O)C(=O)NC[C@H](NC(=O)c2ccc(Nc3nc(NC4(c5ccc(Cl)cc5)CC4)nc(OCC(F)(F)F)n3)cc2)C(=O)O)C1 (stereo partly shown) [Compound 1083]	1.78 nM
Cc1ccc(CNC(=O)C(=O)NCC[C@H](NC(=O)c2ccc(Nc3nc(NC4(c5ccc(Cl)cc5)CC4)nc(OCC(F)(F)F)n3)cc2)C(=O)O)cc1F [Compound 1191]	0.17 nM

Same assay, conditions: Hepatitis C virus, Huh-7, 48 h, HCV pseudoparticles, Huh7 cells, luciferase 2 days after infection; average of duplicates

Compound	EC50
Cc1c(Cl)ccc2sc(NC(=O)C(=O)NCC(C)(C)CNC(=O)c3ccc(Nc4nc(NC5(c6ccc(Cl)cc6)CC5)nc(OCC(F)(F)F)n4)cc3)nc12 [Compound 3817]	0.11 nM

Same assay, conditions: Hepatitis C virus, Huh-7, 48 h, read-out: Activity (EC50 class), HCV pseudoparticle infection of Huh7 cells, luciferase 2 days after infection; EC50 expressed as class A/B

Compound	EC50
COC(=O)C(NC(=O)c1ccc(Nc2nc(NC3(c4ccc(Cl)cc4)CC3)nc(OCC(F)(F)F)n2)cc1)C1CCCN(C(=O)C(N)=O)C1 (stereo not shown) [Compound 1017, methyl 2-(1-(2-amino-2-oxoacetyl)piperidin-3-yl)-2-(4-(4-(1-(4-chlorophenyl)cyclopropylamino)-6-(2,2,2-trifluoroethoxy)-1,3,5-triazin-2-ylamino)benzamido)acetate]	0.01 to 10 nM
O=C1CC(NC(=O)C(=O)NC[C@H](NC(=O)c2ccc(Nc3nc(NC4(c5ccc(Cl)cc5)CC4)nc(OCC(F)(F)F)n3)cc2)C(=O)O)CCN1 (stereo partly shown) [Compound 1082]	0.01 to 10 nM
COC(=O)[C@H](CNC(=O)C(=O)Nc1ccncc1)NC(=O)c1ccc(Nc2nc(NC3(c4ccc(Cl)cc4)CC3)nc(OCC(F)(F)F)n2)cc1 [Compound 1258]	0.01 to 10 nM
COC(=O)[C@H](CNC(=O)C(=O)NCCc1ccc(F)cc1)NC(=O)c1ccc(Nc2nc(NC3(c4ccc(Cl)cc4)CC3)nc(OCC(F)(F)F)n2)cc1 [Compound 1292]	0.01 to 10 nM
C[C@H]1[C@@H](NC(=O)C(=O)NC[C@H](NC(=O)c2ccc(Nc3nc(NC4(c5ccc(Cl)cc5)CC4)nc(OCC(F)(F)F)n3)cc2)C(=O)O)C[C@H]2C[C@@H]1C2(C)C [Compound 1094]	0.01 to 10 nM
CC(C)(CNC(=O)C(=O)NCc1ccc(F)cc1F)CNC(=O)c1ccc(Nc2nc(NC3(c4ccc(Cl)cc4)CC3)nc(OCC(F)(F)F)n2)cc1 [Compound 1034, N1-(3-(4-(4-(1-(4-chlorophenyl)cyclopropylamino)-6-(2,2,2-trifluoroethoxy)-1,3,5-triazin-2-ylamino)benzamido)-2,2-dimethylpropyl)-N2-(2,4-difluorobenzyl)oxalamide]	0.01 to 10 nM
COC(=O)[C@H](CCNC(=O)C(=O)Nc1cc(F)c(F)cc1F)NC(=O)c1ccc(Nc2nc(NC3(c4ccc(Cl)cc4)CC3)nc(OCC(F)(F)F)n2)cc1 [Compound 1510]	0.01 to 10 nM
COc1cccc(CNC(=O)C(=O)NC[C@H](NC(=O)c2ccc(Nc3nc(NC4(c5ccc(Cl)cc5)CC4)nc(OCC(F)(F)F)n3)cc2)C(=O)O)c1 [Compound 1193]	0.01 to 10 nM
CC(=O)c1ccc(NC(=O)C(=O)NCC(C)(C)CNC(=O)c2ccc(Nc3nc(NC4(c5ccc(Cl)cc5)CC4)nc(OCC(F)(F)F)n3)cc2)cc1 [Compound 1603]	0.01 to 10 nM
O=C(NCC[C@H](NC(=O)c1ccc(Nc2nc(NC3(c4ccc(Cl)cc4)CC3)nc(OCC(F)(F)F)n2)cc1)C(=O)O)C(=O)NCCn1cncn1 [Compound 1342]	0.01 to 10 nM
CC(C)OC(=O)[C@H](CNC(=O)C(=O)N(C)C)NC(=O)c1ccc(Nc2nc(NC3(c4ccc(Cl)cc4)CC3)nc(OCC(F)(F)F)n2)cc1 [Compound 1021, (S)-isopropyl 2-(4-(4-(1-(4-chlorophenyl)cyclopropylamino)-6-(2,2,2-trifluoroethoxy)-1,3,5-triazin-2-ylamino)benzamido)-3-(2-(dimethylamino)-2-oxoacetamido)propanoate]	0.01 to 10 nM
CC1(C)CC(NC(=O)C(=O)NC[C@H](NC(=O)c2ccc(Nc3nc(NC4(c5ccc(Cl)cc5)CC4)nc(OCC(F)(F)F)n3)cc2)C(=O)O)CC(C)(C)C1 [Compound 1077]	0.01 to 10 nM
COC(=O)[C@@H](CCNC(=O)C(=O)Nc1ccccc1Cl)NC(=O)c1ccc(Nc2nc(NC3(c4ccc(Cl)cc4)CC3)nc(OCC(F)(F)F)n2)cc1 [Compound 1535]	0.01 to 10 nM
CC(C)(C)OC(=O)NC1CCCC(NC(=O)C(=O)NC[C@H](NC(=O)c2ccc(Nc3nc(NC4(c5ccc(Cl)cc5)CC4)nc(OCC(F)(F)F)n3)cc2)C(=O)O)C1 (stereo partly shown) [Compound 1083]	0.01 to 10 nM
O=C(NCc1cc(F)ccc1F)C(=O)NC[C@H](NC(=O)c1ccc(Nc2nc(NC3(c4ccc(Cl)cc4)CC3)nc(OCC(F)(F)F)n2)cc1)C(=O)O [Compound 1169]	0.01 to 10 nM
CC(C)(CNC(=O)C(=O)Nc1ccc(-c2ccc(-c3ccccc3)cc2)cc1)CNC(=O)c1ccc(Nc2nc(NC3(c4ccc(Cl)cc4)CC3)nc(OCC(F)(F)F)n2)cc1 [Compound 1564]	0.01 to 10 nM
Cn1ccc(NC(=O)C(=O)NC[C@H](NC(=O)c2ccc(Nc3nc(NC4(c5ccc(Cl)cc5)CC4)nc(OCC(F)(F)F)n3)cc2)C(=O)O)n1 [Compound 1351]	0.01 to 10 nM
CC(C)(CNC(=O)C(=O)Nc1ccc(C(C)(C)C)cc1)CNC(=O)c1ccc(Nc2nc(NC3(c4ccc(Cl)cc4)CC3)nc(OCC(F)(F)F)n2)cc1 [Compound 1576]	0.01 to 10 nM
Cc1ccc(CNC(=O)C(=O)NCC[C@H](NC(=O)c2ccc(Nc3nc(NC4(c5ccc(Cl)cc5)CC4)nc(OCC(F)(F)F)n3)cc2)C(=O)O)cc1F [Compound 1191]	0.01 to 10 nM

Same assay, conditions: Hepatitis C virus, Huh-7, 48 h, read-out: Activity (EC50 class), HCV pseudoparticles, Huh7 cells, luciferase 2 days after infection; average of duplicates

Compound	EC50
O=C(NC[C@H](NC(=O)c1ccc(Nc2nc(NC3(c4ccc(Cl)cc4)CC3)nc(OCC(F)(F)F)n2)cc1)C(=O)O)C(=O)Nc1ccc(N2CCOCC2)nc1 [Compound 3759]	0.01 to 10 nM
CC(C)(CNC(=O)C(=O)Nc1ccc(-c2ccncc2)cc1)CNC(=O)c1ccc(Nc2nc(NC3(c4ccc(Cl)cc4)CC3)nc(OCC(F)(F)F)n2)cc1 [Compound 3796]	0.01 to 10 nM
CC(C)(CNC(=O)C(=O)Nc1nc2c(Cl)ccc(Cl)c2s1)CNC(=O)c1ccc(Nc2nc(NC3(c4ccc(Cl)cc4)CC3)nc(OCC(F)(F)F)n2)cc1 [Compound 3837]	0.01 to 10 nM
Cc1c(Cl)ccc2sc(NC(=O)C(=O)NCC(C)(C)CNC(=O)c3ccc(Nc4nc(NC5(c6ccc(Cl)cc6)CC5)nc(OCC(F)(F)F)n4)cc3)nc12 [Compound 3817]	0.01 to 10 nM
CCN(CC)CCOc1cccc(NC(=O)C(=O)NC[C@H](NC(=O)c2ccc(Nc3nc(NC4(c5ccc(Cl)cc5)CC4)nc(OCC(F)(F)F)n3)cc2)C(=O)OC)c1 [Compound 3733]	0.01 to 10 nM
CC(C)(CNC(=O)C(=O)Nc1nc2cnccc2s1)CNC(=O)c1ccc(Nc2nc(NC3(c4ccc(Cl)cc4)CC3)nc(OCC(F)(F)F)n2)cc1 [Compound 3808]	0.01 to 10 nM
O=C(NCC[C@H](NC(=O)c1ccc(Nc2nc(NC3(c4ccc(Cl)cc4)CC3)nc(OCC(F)(F)F)n2)cc1)C(=O)O)C(=O)Nc1ccc(Oc2cccnc2)nc1 [Compound 3624]	0.01 to 10 nM
COC(=O)[C@H](CNC(=O)C(=O)Nc1cccc(-c2nc(C)cs2)c1)NC(=O)c1ccc(Nc2nc(NC3(c4ccc(Cl)cc4)CC3)nc(OCC(F)(F)F)n2)cc1 [Compound 3725]	0.01 to 10 nM

Same assay, conditions: Hepatitis C virus, Huh-7, read-out: Activity (EC50 class), HCV pseudoparticles (genotype 1a, H77C) in Huh7 cells; EC50 expressed as class A/B

Compound	EC50
O=C(NC/C(=N/C(=O)c1ccc(Nc2nc(NC3(c4ccc(Cl)cc4)CC3)nc(OCC(F)(F)F)n2)cc1)C(=O)O)C(=O)Nc1ccc(Cl)cc1 [Compound 3149]	0.01 to 10 nM
CC(C)(CNC(=O)C(=O)Nc1ccccc1-c1nnco1)CNC(=O)c1ccc(Nc2nc(NC3(c4ccc(Cl)cc4)CC3)nc(OCC(F)(F)F)n2)cc1 [Compound 3246]	0.01 to 10 nM
COC(=O)[C@H](CNC(=O)C(=O)Nc1ccc(N2CCN(Cc3ccccc3)CC2)cc1)NC(=O)c1ccc(Nc2nc(NC3(c4ccc(Cl)cc4)CC3)nc(OCC(F)(F)F)n2)cc1 [Compound 3102]	0.01 to 10 nM
COC(=O)[C@H](CNC(=O)C(=O)Nc1ccc(Oc2cccnc2)cc1)NC(=O)c1ccc(Nc2nc(NC3(c4ccc(Cl)cc4)CC3)nc(OCC(F)(F)F)n2)cc1 [Compound 3207]	0.01 to 10 nM
CC(C)(CNC(=O)C(=O)Nc1ccc2[nH]ccc2c1)CNC(=O)c1ccc(Nc2nc(NC3(c4ccc(Cl)cc4)CC3)nc(OCC(F)(F)F)n2)cc1 [Compound 3338]	0.01 to 10 nM
COC(=O)[C@H](CNC(=O)C(=O)Nc1ccc(N2CC(C)NC(C)C2)cc1)NC(=O)c1ccc(Nc2nc(NC3(c4ccc(Cl)cc4)CC3)nc(OCC(F)(F)F)n2)cc1 (stereo partly shown) [Compound 3092]	0.01 to 10 nM
CN(CCCNC(=O)c1ccc(Nc2nc(NC3(c4ccc(Cl)cc4)CC3)nc(OCC(F)(F)F)n2)cc1)C(=O)C(N)=O [Compound 3447]	0.01 to 10 nM
CN(CCCNC(=O)c1ccc(Nc2nc(NC3(c4ccc(Cl)cc4)CC3)nc(OCC(F)(F)F)n2)cc1)C(=O)C(=O)Nc1ccc(F)cc1F [Compound 3449]	0.01 to 10 nM
CC(C)(CNC(=O)C(=O)Nc1ccc(-n2cncn2)cc1)CNC(=O)c1ccc(Nc2nc(NC3(c4ccc(Cl)cc4)CC3)nc(OCC(F)(F)F)n2)cc1 [Compound 3053]	0.01 to 10 nM
O=C(Nc1cccc(F)c1)C(=O)N(CCO)CCCNC(=O)c1ccc(Nc2nc(NC3(c4ccc(Cl)cc4)CC3)nc(OCC(F)(F)F)n2)cc1 [Compound 3497]	0.01 to 10 nM
COC(=O)/C(CCNC(=O)C(=O)Nc1cccc(S(C)(=O)=O)c1)=N\C(=O)c1ccc(Nc2nc(NC3(c4ccc(Cl)cc4)CC3)nc(OCC(F)(F)F)n2)cc1 [Compound 3588]	0.01 to 10 nM
NC(=O)C(=O)NCCNC(=O)c1ccc(Nc2nc(NC3(c4ccc(Cl)cc4)CC3)nc(OCC(F)(F)F)n2)cc1 [Compound 3380]	0.01 to 10 nM
O=C(NC[C@H](NC(=O)c1ccc(Nc2nc(NC3(c4ccc(Cl)cc4)CC3)nc(OCC(F)(F)F)n2)cc1)C(=O)O)C(=O)Nc1ccc(-n2ccnc2)cc1 [Compound 3268]	0.01 to 10 nM
CC(C)(CNC(=O)C(=O)Nc1ccccc1-n1cccn1)CNC(=O)c1ccc(Nc2nc(NC3(c4ccc(Cl)cc4)CC3)nc(OCC(F)(F)F)n2)cc1 [Compound 3015]	0.01 to 10 nM
CC(C)(CNC(=O)C(=O)Nc1ccc(C(F)(F)F)cc1)CNC(=O)c1ccc(Nc2nc(NC3(c4ccc(Cl)cc4)CC3)nc(OCC(F)(F)F)n2)cc1 [Compound 3011]	0.01 to 10 nM
CC(C)(CNC(=O)C(=O)Nc1ccc2ncsc2c1)CNC(=O)c1ccc(Nc2nc(NC3(c4ccc(Cl)cc4)CC3)nc(OCC(F)(F)F)n2)cc1F [Compound 3566]	0.01 to 10 nM
CCC(CC)CCNC(=O)c1ccc(NC(=O)C(=O)NC[C@H](NC(=O)c2ccc(Nc3nc(NC4(c5ccc(Cl)cc5)CC4)nc(OCC(F)(F)F)n3)cc2)C(=O)OC)cc1 [Compound 3089]	0.01 to 10 nM
